pIC50: −log10 of the molar value. In brackets after ≈: the same amount, converted by molar mass. Like-named read-outs stand apart in the source and are kept apart here. Some results are limits rather than exact numbers.

The results in this text go back to US20220024877A1 (Kansas State University Research Foundation, priority 2018, published 2022).

Series [1] can be described thus: Therapeutic index (approx.).
Series [2] is described as follows: Copper(I) binding constant of NNSN compounds (1H-NMR titration with CuBr in D4-methanol). Particulars: for Binding constant: Cu-NNSN 1:1 stoichiometry; for Copper (I) binding constant: Table I. The method, then:
They were recorded in D4-methanol by means of adding aliquots of a 5 mmol CuBr stock solution in D4-methanol to the 1 mmol NNSN-compound, resulting in 0, 0.5, 1.0, 2.0 and 3.0 mmol CuBr concentration in D4-methanol.

Another series deals with MRSA. In words: In vitro activity against S. aureus (MRSA), MIC with or without Cu supplementation. Particulars: Staphylococcus aureus, MRSA.
Another series has as its system S. aureus strain 1471. As to the kind of experiment: Drop assay against S. aureus strain 1471 with or without copper.
Series [3] is described as follows: log P (octanol/water partition coefficient). In kind it is physicochemical.
For series [4], the system named is Avirulent Mtb strain mc26206 (H37Rv ΔpanCD ΔleuCD, double auxotroph). In words: microbe, parasite or virus in culture. In kind it is cell-based. Conditions: Mycobacterium tuberculosis.
Series [5] relates to S. aureus clinical isolate SA3. In words: Zinc-activated activity, MIC with Zn2+ as trigger. Particulars: Staphylococcus aureus.
Where [6] appears, read: read-out: MIC* against MRSA (μM), kinetic data (determined from bacteria growth experiments), resulting in IC50 values similar to MIC values.
[7] abbreviates: Staphylococcus aureus, 1471, read-out: MIC: +50 μM Cu.
[8] abbreviates: Staphylococcus aureus, MRSA, read-out: MIC against MRSA (clinical isolate 1471).

Method for MRSA: S. aureus was inoculated in Mueller-Hinton medium from frozen stocks and grown for 2-4 h (until reaching an OD600˜1) at 37° C. while shaking. Once the OD was reached, bacteria were harvested and diluted in Phenolred-free RPMI1640 medium to an OD of 0.01 (=inoculum). Test compounds where diluted from frozen DMSO-stocks were diluted in Phenolred-free RPMI1640 medium with or without Cu supplementation (100 μM) and serially diluted in 96-well plates in the same medium to achieve a final concentration of between 0.08 and 10 μM after addition of an equal volume of inoculum. Medium-only controls and growth controls in the absence of test compounds were also included. The plates were placed in sealed bags and incubated at 37° C. After 15-20 h incubation time, an OD600 reading was taken and analyzed. […] If kinetic data were required, resazurin was added to each well. Using a plate reader with incubation chamber, resazurin conversion was monitored by fluorescence reading every 20 min for up to 24 h. After normalizing the data to respective controls, the MIC was determined using the same definition as above.
Method for S. aureus strain 1471: For the drop assay, bacteria were grown in wells with or without copper, using a 1:2 drug titration starting at 10 μM.

In general, MIC refers to the least concentration at which growth counts as inhibited. For `COc1ccc(NC(=S)n2cccn2)cc1` [SB22, N-(4-methoxyphenyl)-1H-pyrazole-1-carbothioamide], the “Therapeutic index (approx.)” value in series [1] is on record as greater than 2. Further, in series [2], the “Binding constant” value was determined as 3975 M⁻¹ and the “Copper (I) binding constant” value was 3975 M⁻¹. The MIC with MRSA (setting [6]) was 10 µM (≈ 2.33 µg/mL). For the same compound, in the series on MRSA (organism not named there), the MIC was found to be 10 µM (≈ 2.33 µg/mL).
Broadly, the logP is a log measure of how a compound divides between an organic and an aqueous phase. With `CN(C(=S)Nc1cccc(Cl)c1)c1ccn(C(=S)Nc2cccc(Cl)c2)n1` [SB54, N-(3-chlorophenyl)-3-(3-(3-chlorophenyl)-1-methylthioureido)-1H-pyrazole-1-carbothioamide], the MIC with S. aureus strain 1471 (setting [7]) and in the series with S. aureus strain 1471 (setting [8]) was 0.15 µM (≈ 0.0655 µg/mL) in each case. The same compound gave a logP in series [3] of 5.9.
As to `S=C(Nc1ccc(Cl)cc1)n1ccc(OCc2ccccc2)n1` [SB44, 3-(benzyloxy)-N-(4-chlorophenyl)-1H-pyrazole-1-carbothioamide], the MIC in the series on S. aureus strain 1471 (setting [8]) and in the series with MRSA (setting [6]) was 0.15 µM (≈ 0.0516 µg/mL) each time. Besides, the logP in series [3] was 4.74.
In general, pIC50 refers to the IC50 on a negative log10 scale, so that one unit is a factor of ten. Turning to `Nc1ccn(C(=S)Nc2ccc(Cl)cc2)n1` [APM03, 3-amino-N-(4-chlorophenyl)-1H-pyrazole-1-carbothioamide], the pIC50 is 6.52 in series [4] (read-out: IC50 +Cu) and less than 4.90 in series [4] (read-out: IC50 −Cu). Moreover, the MIC90 was 0.5 µM (≈ 0.126 µg/mL) in series [4] (read-out: MIC90 +Cu) and greater than 25 µM in series [4] (read-out: MIC90 −Cu). Moreover, the “Therapeutic index (approx.)” value in series [1] amounted to 2. In addition, in series [2], the “Copper (I) binding constant” value was determined as 53225 M⁻¹. Moreover, the MIC turned out to be 1.25 µM (≈ 0.316 µg/mL) with S. aureus strain 1471 (setting [7]); 0.6 µM (≈ 0.152 µg/mL) in the series with S. aureus strain 1471 (setting [8]); 70 µM (≈ 17.7 µg/mL) in the series on MRSA (read-out: MIC against the clinical isolate SA3, SA3 resistant to ampicillin, clindamycin, erythromycin, penicillin, and tetracycline); 0.07 µM (≈ 0.0177 µg/mL) with MRSA (setting [6]); 2.5 µM (≈ 0.632 µg/mL) in series [5]. The same compound had a logP in series [3] of 2.1.
For `Nc1ccn(C(=S)Nc2ccc([N+](=O)[O-])cc2)n1` [SB27, 3-amino-N-(4-nitrophenyl)-1H-pyrazole-1-carbothioamide], the “Therapeutic index (approx.)” value in series [1] is reported as 1. In addition, in series [2], the “Copper (I) binding constant” value was found to be 10460 M⁻¹. For the same compound, in the series with MRSA (setting [6]), the MIC came out at 0.3 µM (≈ 0.079 µg/mL).
As to `Cc1ccn(C(=S)Nc2ccc(Cl)cc2)n1` [SB17], the “Binding constant” value in series [2] was 54020 M⁻¹. The compound further returned an MIC in series [5] of 5 µM (≈ 1.26 µg/mL).
